Experimental data published in US20260184689A1, “PIPERIDINE-SUBSTITUTED BENZOIC ACID COMPOUND, AND PHARMACEUTICAL COMPOSITION AND USE THEREOF” (SHANGHAI YISHENG BIOPHARMACEUTICAL COMPANY LIMITED, priority 2022, published 2026).

How the values were obtained:
[1] = system: Sheep Anti-Rat Fx1A Serum induced Heymann nephritis; assay: In vivo efficacy assay of passive Heymann nephritis in rats; conditions: male SD rats, intragastric twice a day for 14 days, 5, 20 and 60 mpk; LNP023 60 mpk
Description: Experimental objective: To investigate the ability of the compounds of the present disclosure to improve renal function of Sheep Anti-Rat Fx1A Serum induced Heymann nephritis in rats, including the evaluation of reducing proteinuria level and improving renal tissue damage.
Experimental animals: Male SD rats, 7 to 10 weeks old, weighing between 200 to 300 g.
Urine was collected from rats on D-2 before administration. On D1, the first day of the experiment, animals in the control group (group 1) were administered 5 mL/kg of Sheep Non-Immune serum via a single tail vein injection; animals in the model and administration groups (groups 2 to 6) were administered 5 mL/kg of Sheep Anti-Rat Fx1A Serum via a single tail vein injection.
The rats were treated by intragastric administration twice a day with an interval of 8 hours and a volume of 10 mL/kg. On D1, 1 hour before modeling, animals in groups 1 and 2 were administered blank vehicle 20% PEG400/10% Solutol/70% water; animals in group 3 were administered LNP023 (60 mpk); animals in groups 4 to 6 were administered different concentrations of synthetic compounds (5 mpk, 20 mpk, and 60 mpk); 8 hours after the first administration, each group was administered again with the same dose and volume as the first administration. From D2 to D14, animals in each group were administered different compounds or vehicles for 14 consecutive days (including the first day) according to the dose, volume, administration method, and frequency on D1.
Urine collection: Urine samples were collected from rats on D-2 before administration, and 2 to 4 hours and 4 to 6 hours after the first administration on D4, D6, D8, D11, and D14 after administration, transferred to EP tubes and stored in a refrigerator at −80° C. to −60° C. for the detection of urine protein and creatinine in rats.
Kidney sample collection: All animals were euthanized with CO2 inhalation anesthesia on Day 15, and bilateral kidneys were collected. The left kidney was cut transversely, and the right kidney was cut longitudinally. Half of the transversely cut kidney (left side) and half of the longitudinally cut kidney (right side) were fixed in formalin (placed in the same EP tube).
4. […] Urine total protein (uTP) in rats was detected without dilution; if exceeding the upper detection limit, it was 10-fold diluted (10 μL of sample+90 μL of saline (0.9% saline)) first (Decrease mode); if still exceeding the upper detection limit after 10-fold dilution, it was 100-fold diluted (2 μL of sample+198 μL of saline (0.9% saline)) (Increase mode). Data were read by the analytical instrument HITACHI LST008AS(P). • (2) Kidney pathological scoring: The degree of drug damage to rat kidneys (paraffin sections) was analyzed by HE staining. […]

[2] = system: LPS-induced complement activation; assay: In vivo efficacy assay of LPS-induced complement activation in mice; conditions: female C57BL/6J mice, LPS 100 μg intraperitoneal, PO
Procedure: Experimental objective: To investigate the inhibitory effect of the compounds of the present disclosure on complement activation in mice induced by LPS stimulation.
Experimental animals: Female C57BL/6J mice, 7 to 9 weeks old, weighing between 17 to 23 g.
Experimental procedure: 100 μg of lipopolysaccharide (LPS) in Salmonella typhimurium (Sigma) dissolved in 100 μL of sterile PBS was intraperitoneally injected to induce complement activation in mice. Negative control animals were intraperitoneally injected 100 μL of sterile PBS and administered alone by tube feeding (PO). Positive control animals were intraperitoneally injected LPS and PO drug vehicles (0.5% (w/v) methyl cellulose and 0.5% (v/v) Tween 80).
Sample collection: 0.3 mL of blood samples were collected from the orbital venous plexus. All blood samples were added to commercially available EDTA-K2 anticoagulant tubes with a specification of 1.5 mL. After collection, within half an hour, the blood sample was centrifuged at 4° C., 3000 g for 10 min to aspirate the supernatant plasma, which was put in dry ice immediately, and stored in a refrigerator at −80° C. for Western blot analysis of downstream C3d protein levels after complement activation.
Sample analysis: Mouse plasma (5 μL)+Lysis buffer (27.5 μL)+Loading buffer (12.5 μL)+Reducing buffer (5 μL) were mixed well and incubated at 100° C. for 15 min with a loading volume of 5 μL/well, i.e., a loading volume of plasma of 0.5 μL per well.
Test compounds: positive compound LNPO23, the final product of Example 158, the final products (compound 159A and compound 159B) of Example 159, and compound 11 of Example 75.

[3] = Pharmacokinetic activity assay in mice; assay type: in vivo; conditions: IV 1 mg/kg, PO 10 mg/kg
Procedure: Experimental objective: The test substance was administered to mice via single-dose intravenous and oral gavage routes, and its plasma concentration was measured to evaluate the pharmacokinetic characteristics in mice.
Experimental animals: C57 mice or other available test mice
IV dose: 1 mg/kg; vehicle: 0.5% DMSO or 0.5% MeOH-5% pharmaceutical grade polyethylene glycol-15 hydroxystearate-PBS
Sample collection: 0.03 mL of blood samples were collected from the saphenous vein in experimental animals by puncture at each time point, and the actual blood collection time was recorded. All blood samples were added to commercially available EDTA-K2 anticoagulant tubes with a specification of 1.5 mL (supplied by Jiangsu Kangjian Medical Apparatus Co., Ltd.). After collection, within half an hour, the blood sample was centrifuged at 4° C., 3000 g for 10 min to aspirate the supernatant plasma, which was put in dry ice immediately, and stored in a refrigerator at −80° C. for LCMS/MS analysis.
Blood sampling points: 5 min, 15 min, 30 min, 1 hour, 2 hours, 4 hours, 6 hours, 8 hours, 12 hours, 20 hours, 24 hours.
Test compounds: positive compound LNP023, the final product of Example 158, the final products (compound 159A and compound 159B) of Example 159, and compound 11 of Example 75.

CCCC1CCN(C(=O)c2c(OC)cc(C)c3[nH]ccc23)C(c2ccc(C(=O)O)cc2)C1 (single isomer, unassigned) [Compound 159B]
performance in the kidney disease model through urine and kidney pathology analysis, compared with LNP023 [1]: performed better
inhibition of LPS-induced complement activation (plasma C3d levels), compared with LNP023 [2]: superior or equivalent
clearance rate during in vivo metabolism, compared with LNP023 [3]: comparable or superior
half-life during in vivo metabolism, compared with LNP023 [3]: comparable or superior
